Source: US20140023589A1, “FRMD4A ANTAGONISTS AND THEIR USES” (CANCER RESEARCH TECHNOLOGY LIMITED, priority 2011, published 2014)
Entries after “also recorded” stand apart in the source; their conditions may differ.

Key:
SCC13 cells [1] = experiment: Colony forming assay, SCC13; type: cell-based, human; details: plates coated with HA
Protocol: For colony forming assays, 100 cells were plated in triplicate in 10 cm plates. After 14 days, cultures were fixed and stained with 1% rhodamine B and 1% Nile blue (Acros Organic). Colony-forming efficiency was defined as the percentage of plated cells that formed a colony of three or more cells.

[2] = injection in the skin and knee joint; cited from earlier work
SCC cells = experiment: Incucyte timelapse growth of SCC cells (cell line not specified); type: cell-based, human; details: SCCs cultured on HA coated plates
Protocol: For Incucyte assays, 1000 cells were plated in triplicate for each condition, in a 48-well plate. Plates were imaged every 3 hours for 7 days.
Having established that FRMD4A has a functional role in SCC proliferation and tumour growth and that it is also modulating the differentiation of such cells, in part perhaps via cancer stem cells and is a key mediator of the Hippo pathway control in SCCs, the present inventors recognised that FRMD4A represents a potential target for therapeutic options. Currently many targeted antibody therapies are in clinical use or undergoing trials to determine their efficacy in the treatment of several malignant and non-malignant diseases. To test if any of the generated antibodies developed against FRMD4A may have a blocking effect on SCCs, the antibodies were added to cells grown in the Incucyte timelapse imaging system.

[3] = system: SCC13 back skin xenograft; experiment: SCC13 back skin xenograft, hyaluronic acid treatment; type: in vivo, mouse
Protocol: (§1) All mice used were NOD.Cg-Prkdc^scid I12rg^tm1Wj1/SzJ or NOD/SCID Gamma (NSG) as they are commonly known. Mice were originally purchased from the Jackson Laboratories (Maine, USA) and then bred in-house. Experiments were subject to Cancer Research UK ethical review and were performed under the terms of a U.K. Government Home Office license. Tongue xenografts were carried out using inhalation anaesthesia and injection into the mucosa with a 30 g needle and 1 ml syringe. Mice were grafted using inhalation anaesthesia. An area of skin on the back of each mouse was shaved and cleaned with a betadine solution. Using a 6 mm punch biopsy punch a full thickness wound was created, into which the silicone chamber was inserted and stapled in place. A preparation of cells could then be injected into the chamber. After one week the top of the silicone chamber was cut off to allow the tumour to develop exposed to the normal skin-air interface. After a further week the whole silicone chamber was carefully removed. Mice were scanned with the Xenogen IVIS following an i.p. injection of luciferin (10 μl/g).
Mice were grafted into the back skin with 1×10E6 SCC13 cells.
After one week an initial measurement was made with the Xenogen IVIS. Following this, each mouse was directly injected into the tumour with 200 μl of 0.1% HA. […]

CD44 and FRMD4A staining = experiment: Immunostaining of cells grown on HA coated coverslips; type: cell-based, human
[4] = system: normal human keratinocytes; experiment: Induced differentiation of normal human keratinocytes; type: cell-based
Source text: To determine the expression of FRMD4A mRNA in normal human skin we carried out in-situ hybridisations on normal human foreskin. […] Using the Zeiss PALM Laser Capture Microdissection system, samples were collected separately from the basal and granular layers of human abdomen skin sections. […] Levels of FRMD4A were contrary to this, with high levels in the less differentiated basal layer, which dropped to almost nothing in the more differentiated granular layer (FIG. 1B). Similarly, normal human keratinocytes grown in serum free culture were induced to differentiate, by the addition of AG1478 and BMP2/7 (FIG. 1C). Differentiation of the keratinocytes was confirmed by increased levels of transglutaminase in the presence of these agents alone compared to treatment with vehicle alone. Addition of both together led to expression of even higher levels of the differentiation marker TG-1. FRMD4A levels were high in the vehicle treated sample, but became barely detectable in the differentiated samples (FIG. 1C) showing that FRMD4A is associated with less differentiated cell types.

SCC13 cells [5] = experiment: SCC13 cells grown in the presence of 17-DMAG in vitro; type: cell-based, human; details: range of concentrations
SCC25 tongue xenograft = experiment: SCC25 tongue xenograft, 17-DMAG treatment; type: in vivo, mouse; details: weekly i.p. injections, compared to vehicle control
Protocol: as §1
Mice were tongue grafted with 1×10E5 SCC25 cells. After one week an initial measurement was made with the Xenogen IVIS. Following this, each mouse was i.p injected with either 17-DMAG or vehicle control. […]

hyaluronic acid [HA]
average colony area (SCC13 cells [1]): reduction in average colony area
average colony staining intensity (SCC13 cells [1]): reduction
colony forming efficiency (SCC13 cells [1]): reduction in colony forming efficiency
toxic effects [2]: no apparent toxic effects
overall growth rate (SCC cells): decrease in growth rate; also recorded: reduces the growth of SCCs
survival ([3]; HA injection of xenograft tumours): increased survival
tumour growth rate ([3]; weekly intra-tumour injection, compared with PBS): reduced growth rate; also recorded: reduced the growth of the tumour
CD44 staining (CD44 and FRMD4A staining): increase in CD44 staining
nuclear FRMD4A staining (CD44 and FRMD4A staining): loss of nuclear FRMD4A staining

COc1cc2ncnc(Nc3cccc(Cl)c3)c2cc1OC [AG1478]
FRMD4A levels [4]: downregulation of FRMD4A levels
TG1 levels ([4]; differentiation marker): upregulation of TG1 levels

CO[C@H]1/C=C\C=C(/C)C(=O)NC2=CC(=O)C(NCCN(C)C)=C(C[C@@H](C)C[C@H](OC)[C@H](O)[C@@H](C)/C=C(\C)[C@@H]1OC(N)=O)C2=O [17-DMAG, 17-Dimethylaminoethylamino-17-demethoxygeldanamycin]
killing of cells in vitro (SCC13 cells [5]): readily killed over a range of concentrations; also recorded: dramatic effect
progression of tumours (SCC25 tongue xenograft): slower progression of their tumours
